{"source": "patent US20180298405A1", "about": "“METHODS AND COMPOSITIONS TO INCREASE HUMAN SOMATIC CELL NUCLEAR TRANSFER (SCNT) EFFICIENCY BY REMOVING HISTONE H3-LYSINE TRIMETHYLATION, AND DERIVATION OF HUMAN NT-ESC” (CHILDREN'S MEDICAL CENTER CORPORATION, priority 2015, published 2018)", "test_system": "reprogramming resistant regions (RRRs) / ZGA genes", "assay": "RNA-seq of late 8-cell human SCNT embryos with or without KDM4A mRNA injection (ZGA of RRRs, KDM4A-responsive genes)", "format": "cell-based", "conditions": "8-cell embryos", "excerpt": "A sliding window (size 20 kb, step size 10 kb) was used to assess the genome-wide expression level of 4-cell and 8-cell human embryos. For each window, the expression level was quantified with normalized RPM (reads per millions of uniquely mapped reads). […] These activated regions were classed into three groups based on their expression differences in human SCNT and IVF 8-cell embryos.\nThe SCNT embryos used for ZGA analysis were generated using oocytes donated by a single healthy person (#64) and dermal fibroblast cells from an AMD patient (DFB-8). SCNT and IVF embryos were cultured up to late 8-cell stage, when the compaction of blastomeres is initiated, then they were treated briefly with acid Tyrode solution to remove zona pellucida. To prepare for the 8-cell SCNT embryo, oocytes from a single oocyte donor, and skin fibroblast cells from a single somatic nuclear donor were used. All the procedures are the same as described in the “Human SCNT procedure and KMD4A mRNA injection” section. Only embryos that reached the late 8-cell stage synchronically 74 hours post activation were collected and used for this experiment.\nFor preparation of the control IVF embryos, several donated early 8-cell stage IVF embryos were thawed and cultured for 5-7 hours to allow them to reach late 8-cell stage before being processed. After removal of the zona pellucida, the denuded embryos were washed 3 times in PBS, loaded into RNAse and DNAse free PCR tubes, spin downed, and snap frozen in liquid nitrogen. Then, they were kept at −80° C. until use. As controls, dermal fibroblast cells of somatic nuclear donors were also prepared. Those fibroblast cells were cultured in a 25 cm^2 flask in DMEM 10% FBS, and approximately 10,000 cells/donor were collected, snap frozen, and stored at −80° C. until use.\nFive 8-cell embryos for each group were directly lysed and used for cDNA synthesis using SMART-Seq v4 Ultra Low Input RNA Kit (Clontech). For MEF donor, 10 ng total RNA was used for cDNA synthesis using SMART-Seq v4 Ultra Low Input RNA Kit. After amplification, the cDNA samples were fragmented using Covaris sonicator M220 to an average size of 150 bp (Covaris). Sequencing libraries were made with the fragmented DNA using NEBNext Ultra DNA Library Prep Kit for Illumina according to manufacturer's instruction (New England Biolabs) with different barcodes. For each RNA-seq analysis of hESCs, 1 μg total RNA was used for mRNA purification. Barcoded RNA-seq libraries were generated using NEBNext Ultra Directional RNA Library Prep Kit for Illumina (New England Biolabs). Single end 50 bp sequencing was performed on a HiSeq 2500 sequencer (Illumina). Sequencing reads were mapped to the human genome (hg19) with Tophat2. All programs were performed with default settings (unless otherwise specified). At least 22 million uniquely mapped reads were obtained for each sequencing library, and subsequently assembled into transcripts guided by the reference annotation (Refseq gene models) with Cufflinks v2.0.2. Expression level of each gene was quantified with normalized FPKM (fragments per kilobase of exon per million mapped fragments). Statistical analyses were performed with R (available at: “www.r-project.org/”). Independent 2 group Wilcoxon rank sum tests were used to compare distributions using the wilcox.test function in R. Pearson's r coefficient was calculated using the cor function with default parameters. The hierarchical clustering analysis of the global gene expression pattern in different samples was carried out using heatmap.2 function (gplots package) in R."}
{"substance": "KDM4A mRNA: in vitro transcribed mRNA of full length human KDM4A/JHDM3A cDNA, an H3K9me3 demethylase (SEQ ID NO: 1)", "values": [{"measurement": "FAM83D Fold Change (log2) [KDM4A SCNT/Control SCNT]", "result": 1.32, "unit": "log2"}, {"measurement": "FAM133B Fold Change (log2) [KDM4A SCNT/Control SCNT]", "result": 1.1, "unit": "log2"}, {"measurement": "FAM151A Fold Change (log2) [KDM4A SCNT/Control SCNT]", "result": 1.99, "unit": "log2"}, {"measurement": "FAM162A Fold Change (log2) [KDM4A SCNT/Control SCNT]", "result": 1.73, "unit": "log2"}, {"measurement": "FAM200A Fold Change (log2) [KDM4A SCNT/Control SCNT]", "result": 1.17, "unit": "log2"}, {"measurement": "FASTKD5 Fold Change (log2) [KDM4A SCNT/Control SCNT]", "result": 1.05, "unit": "log2"}, {"measurement": "FBXL12 Fold Change (log2) [KDM4A SCNT/Control SCNT]", "result": 1.74, "unit": "log2"}, {"measurement": "FMR1NB Fold Change (log2) [KDM4A SCNT/Control SCNT]", "result": 1.49, "unit": "log2"}, {"measurement": "FOXN2 Fold Change (log2) [KDM4A SCNT/Control SCNT]", "result": 1.29, "unit": "log2"}, {"measurement": "GALM Fold Change (log2) [KDM4A SCNT/Control SCNT]", "result": 1.55, "unit": "log2"}, {"measurement": "GIP Fold Change (log2) [KDM4A SCNT/Control SCNT]", "result": 1.59, "unit": "log2"}, {"measurement": "GJA1 Fold Change (log2) [KDM4A SCNT/Control SCNT]", "result": 1.36, "unit": "log2"}, {"measurement": "GOLGB1 Fold Change (log2) [KDM4A SCNT/Control SCNT]", "result": 1.58, "unit": "log2"}, {"measurement": "GUCA1B Fold Change (log2) [KDM4A SCNT/Control SCNT]", "result": 1.02, "unit": "log2"}, {"measurement": "GUSBP1 Fold Change (log2) [KDM4A SCNT/Control SCNT]", "result": 1.11, "unit": "log2"}, {"measurement": "GUSBP4 Fold Change (log2) [KDM4A SCNT/Control SCNT]", "result": 1.12, "unit": "log2"}, {"measurement": "H3F3A Fold Change (log2) [KDM4A SCNT/Control SCNT]", "result": 1.84, "unit": "log2"}, {"measurement": "IFI30 Fold Change (log2) [KDM4A SCNT/Control SCNT]", "result": 1.05, "unit": "log2"}, {"measurement": "IL13RA2 Fold Change (log2) [KDM4A SCNT/Control SCNT]", "result": 1.85, "unit": "log2"}, {"measurement": "KHDC1 Fold Change (log2) [KDM4A SCNT/Control SCNT]", "result": 1.89, "unit": "log2"}, {"measurement": "KHDC1L Fold Change (log2) [KDM4A SCNT/Control SCNT]", "result": 1.54, "unit": "log2"}, {"measurement": "KITLG Fold Change (log2) [KDM4A SCNT/Control SCNT]", "result": 2.36, "unit": "log2"}, {"measurement": "KLF17 Fold Change (log2) [KDM4A SCNT/Control SCNT]", "result": 1.19, "unit": "log2"}, {"measurement": "KLK4 Fold Change (log2) [KDM4A SCNT/Control SCNT]", "result": 1.68, "unit": "log2"}, {"measurement": "KLK11 Fold Change (log2) [KDM4A SCNT/Control SCNT]", "result": 1.76, "unit": "log2"}, {"measurement": "KPTN Fold Change (log2) [KDM4A SCNT/Control SCNT]", "result": 4.35, "unit": "log2"}, {"measurement": "LARP6 Fold Change (log2) [KDM4A SCNT/Control SCNT]", "result": 1.35, "unit": "log2"}, {"measurement": "LEMD3 Fold Change (log2) [KDM4A SCNT/Control SCNT]", "result": 1.11, "unit": "log2"}, {"measurement": "LIM2 Fold Change (log2) [KDM4A SCNT/Control SCNT]", "result": 1.99, "unit": "log2"}, {"measurement": "LINC00263 Fold Change (log2) [KDM4A SCNT/Control SCNT]", "result": 1.39, "unit": "log2"}, {"measurement": "LOC284408 Fold Change (log2) [KDM4A SCNT/Control SCNT]", "result": 2.24, "unit": "log2"}, {"measurement": "LOC347411 Fold Change (log2) [KDM4A SCNT/Control SCNT]", "result": 1.36, "unit": "log2"}, {"measurement": "LOC401397 Fold Change (log2) [KDM4A SCNT/Control SCNT]", "result": 1.75, "unit": "log2"}, {"measurement": "LOC643955 Fold Change (log2) [KDM4A SCNT/Control SCNT]", "result": 1.44, "unit": "log2"}, {"measurement": "LOC653513 Fold Change (log2) [KDM4A SCNT/Control SCNT]", "result": 2.12, "unit": "log2"}, {"measurement": "LOC723809 Fold Change (log2) [KDM4A SCNT/Control SCNT]", "result": 1.15, "unit": "log2"}, {"measurement": "LOC100129515 Fold Change (log2) [KDM4A SCNT/Control SCNT]", "result": 1.03, "unit": "log2"}, {"measurement": "LOC100289211 Fold Change (log2) [KDM4A SCNT/Control SCNT]", "result": 2.34, "unit": "log2"}, {"measurement": "LOC100505854 Fold Change (log2) [KDM4A SCNT/Control SCNT]", "result": 1.58, "unit": "log2"}, {"measurement": "LOC100506305 Fold Change (log2) [KDM4A SCNT/Control SCNT]", "result": 1.2, "unit": "log2"}, {"measurement": "LOC100506668 Fold Change (log2) [KDM4A SCNT/Control SCNT]", "result": 1.63, "unit": "log2"}, {"measurement": "LUC7L Fold Change (log2) [KDM4A SCNT/Control SCNT]", "result": 1.28, "unit": "log2"}, {"measurement": "M1 Fold Change (log2) [KDM4A SCNT/Control SCNT]", "result": 4.71, "unit": "log2"}, {"measurement": "MAGEA12 Fold Change (log2) [KDM4A SCNT/Control SCNT]", "result": 1.81, "unit": "log2"}, {"measurement": "MAGEB2 Fold Change (log2) [KDM4A SCNT/Control SCNT]", "result": 3.15, "unit": "log2"}, {"measurement": "MATR3 Fold Change (log2) [KDM4A SCNT/Control SCNT]", "result": 1.11, "unit": "log2"}, {"measurement": "MED31 Fold Change (log2) [KDM4A SCNT/Control SCNT]", "result": 1.44, "unit": "log2"}, {"measurement": "MFSD11 Fold Change (log2) [KDM4A SCNT/Control SCNT]", "result": 1.4, "unit": "log2"}, {"measurement": "MPV17L2 Fold Change (log2) [KDM4A SCNT/Control SCNT]", "result": 1.54, "unit": "log2"}, {"measurement": "MRPL28 Fold Change (log2) [KDM4A SCNT/Control SCNT]", "result": 1.59, "unit": "log2"}, {"measurement": "MTERF Fold Change (log2) [KDM4A SCNT/Control SCNT]", "result": 2.39, "unit": "log2"}, {"measurement": "NANOGNB Fold Change (log2) [KDM4A SCNT/Control SCNT]", "result": 1.79, "unit": "log2"}]}
